Values of other authors as cited in US9770423B2, “Modulation sAPP, sAAPα and BDNF levels in individuals diagnosed with FXS and ASD” (Indiana University Research and Technology Corp., priority 2012, dated 2017).

Key:
[1] = test system: cerebellar granule cells from FMR1 knockout mice; settings: cultured cerebellar granule cells from FMR1 knockout mice; cited from earlier work
[2] = test system: persons with FXS and comorbid ASD; settings: cited from earlier work
[3] = test system: fmr1 knockout mouse; settings: literature; cited from earlier work
[4] = test system: males with FXS; settings: cited from earlier work
[5] = test system: subjects with FXS; settings: cited from earlier work
[6] = test system: drinking-in-the-dark mouse model; settings: cited from earlier work
[7] = test system: adults with FXS; settings: single dose, cited from earlier work

## CC12CC3CC(C)(C1)CC(N)(C3)C2 [memantine]
[1]
  dendritic spine development and synapse formation: correction of dendritic spine development and synapse formation
[2]; four of 6 persons with FXS and comorbid ASD
  subjects with clinical response (CGI-I very much improved or much improved): 67%
[2]; of 6 persons
  subjects with treatment limiting irritability: Two subjects

## CC(=O)[C@H]1CC[C@H]2[C@@H]3CC[C@H]4C[C@H](O)CC[C@]4(C)[C@H]3C(=O)C[C@]12C [alphaxalone]
[3]
  effect on phenotype of fmr1 knockout mice: reductions in anxiety and rescue of audiogenic seizures

## COC(=O)N1CC[C@@H]2[C@H]1CCC[C@@]2(O)C#Cc1cccc(C)c1 [AFQ056]
[4]; 7 subject subset
  response in subset with full FMR1 gene methylation (ABC, CGI-I, Visual Analogue Scale, Repetitive Behavior Scale-Revised): significant response to AFQ056 compared to placebo
[4]; 30 males with FXS aged 18 to 35 years
  group treatment effect: not associated with significant group treatment effect

## Cc1cccc(C#Cc2ccccc2)n1 [MPEP, 2-methyl-6-(phenylethynyl)-pyridine]
[3]
  effect on phenotype of fmr1 knockout mice: reverse phenotypic characteristics, including audiogenic seizures, altered pre-pulse inhibition (PPI), and open field hyperactivity

## Oc1noc2c1CCNC2 [gaboxadol]
[3]
  effect on phenotype of fmr1 knockout mice: restored neuron excitability deficits in the amygdala, reduced hyperactivity, and reduced PPI deficits

## NC[C@H](CC(=O)O)c1ccc(Cl)cc1 (single isomer, unassigned) [STX209]
[3]
  effect on phenotype of fmr1 knockout mice: correction of aberrant protein synthesis and dendritic spine abnormalities
[5]; 27 subject subset with baseline ABC-SW score of ≧8
  ABC-SW and VABS Socialization, post-hoc subset: significant STX209-associated improvement
[5]; 63 subjects aged 6 to 40 years with FXS
  primary outcome measure, ABC Irritability (ABC-I) subscale: not associated with improvement
[5]; 63 subjects with FXS
  Social Avoidance scale (ABC-SA), post-hoc analysis: significant group-wide improvement
  global measures (CGI-I, CGI-S), other ABC subscales, Visual Analog Scale: Group-wide effects were also not noted
  subjects reporting sedation: 8%

## Cc1nc(C#Cc2cccnc2)cs1 [MTEP, 3-((2-Methyl-4-thiazolyl)ethynyl)pyridine]
[6]
  alcohol intake: reduced alcohol intake

## NCCS(=O)(=O)O [taurine]
[3]
  effect on phenotype of fmr1 knockout mice: Improvements in memory acquisition and retention

## CN1CC(=O)NC1=NC(=O)Nc1cccc(Cl)c1 [fenobam]
[7]; 3 of 12 adults with FXS
  subjects experiencing mild sedation: 25%
[7]; 9 of 12 adults with FXS, reductions in hyperactivity and anxiety
  subjects who experienced clinical benefit: 75%
[7]; 12 adults with FXS
  pharmacokinetics: variable pharmacokinetics
  tolerability: good tolerability
